What was measured:
Experiment in all cases: relative viability (nuclei count vs DMSO), 5 days (fraction); higher = more cells survive
[1] = tested on: HCC-827
In short: (§1)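 Values are medians from duplicate plates. Each reflects relative viability, defined as the nuclei count of treated wells over that of vehicle wells. Lung cancer cell lines in 1536-well plates were pin-tool dosed one day after seeding with one drug alone or with a fixed anchor-drug dose plus five library-drug doses (not always all listed) in √10 steps, then fixed, stained and imaged at 4× after 5 days.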

[2] = tested on: EPLC-272H
In short: as §1

[3] = tested on: 201T
In short: as §1

[4] = tested on: PC-14
In short: as §1

[5] = tested on: NCI-H647
In short: as §1

[6] = tested on: COR-L 105
In short: as §1

[7] = tested on: LC-2-ad
In short: as §1

[8] = tested on: NCI-H2405
In short: as §1

[9] = tested on: NCI-H661
In short: as §1

[10] = tested on: LCLC-97TM1
In short: as §1

[11] = tested on: ChaGo-K-1
In short: as §1

[12] = tested on: NCI-H1666
In short: as §1

[13] = tested on: HCC-78
In short: as §1

[14] = tested on: NCI-H2126
In short: as §1

[15] = tested on: RERF-LC-KJ
In short: as §1

[16] = tested on: NCI-H23
In short: as §1

[17] = tested on: NCI-H650
In short: as §1

[18] = tested on: NCI-H1915
In short: as §1

[19] = tested on: NCI-H2347
In short: as §1

[20] = tested on: NCI-H2087
In short: as §1

[21] = tested on: H3255
In short: as §1

[22] = tested on: NCI-H520
In short: as §1

## Cc1sc2c(c1C)C(c1ccc(Cl)cc1)=N[C@@H](CC(=O)OC(C)(C)C)c1nnc(C)n1-2 [JQ1] + CS(=O)(=O)N1CCN(Cc2cc3nc(-c4cccc5[nH]ncc45)nc(N4CCOCC4)c3s2)CC1 [Pictilisib] (partner 1 µM)
[1]; first compound 0.04 µM
  relative viability: 1.06
[1]; first compound 0.4 µM
  relative viability: 0.544
[1]; first compound 1.265 µM
  relative viability: 0.911
[1]; first compound 4 µM
  relative viability: 0.752
[2]; first compound 0.04 µM
  relative viability: 0.298
[2]; first compound 0.1265 µM
  relative viability: 0.326
[2]; first compound 0.4 µM
  relative viability: 0.301
[2]; first compound 1.265 µM
  relative viability: 0.223
[2]; first compound 4 µM
  relative viability: 0.184
[3]; first compound 0.04 µM
  relative viability: 0.656
[3]; first compound 0.1265 µM
  relative viability: 0.644
[3]; first compound 0.4 µM
  relative viability: 0.519
[3]; first compound 1.265 µM
  relative viability: 0.474
[3]; first compound 4 µM
  relative viability: 0.399
[4]; first compound 0.04 µM
  relative viability: 0.631
[4]; first compound 0.1265 µM
  relative viability: 0.498
[4]; first compound 0.4 µM
  relative viability: 0.445
[4]; first compound 1.265 µM
  relative viability: 0.243
[4]; first compound 4 µM
  relative viability: 0.122
[5]; first compound 0.04 µM
  relative viability: 0.428
[5]; first compound 0.1265 µM
  relative viability: 0.3
[5]; first compound 0.4 µM
  relative viability: 0.305
[5]; first compound 1.265 µM
  relative viability: 0.188
[5]; first compound 4 µM
  relative viability: 0.15
[6]; first compound 0.04 µM
  relative viability: 0.374
[6]; first compound 0.1265 µM
  relative viability: 0.264
[6]; first compound 0.4 µM
  relative viability: 0.312
[6]; first compound 1.265 µM
  relative viability: 0.304
[6]; first compound 4 µM
  relative viability: 0.327
[7]; first compound 0.04 µM
  relative viability: 0.386
[7]; first compound 0.1265 µM
  relative viability: 0.605
[7]; first compound 0.4 µM
  relative viability: 0.263
[7]; first compound 1.265 µM
  relative viability: 0.121
[7]; first compound 4 µM
  relative viability: 0.117
[8]; first compound 0.04 µM
  relative viability: 0.536
[8]; first compound 0.4 µM
  relative viability: 0.405
[8]; first compound 1.265 µM
  relative viability: 0.263
[8]; first compound 4 µM
  relative viability: 0.221
[9]; first compound 0.04 µM
  relative viability: 0.426
[9]; first compound 0.1265 µM
  relative viability: 0.326
[9]; first compound 0.4 µM
  relative viability: 0.337
[9]; first compound 1.265 µM
  relative viability: 0.365
[9]; first compound 4 µM
  relative viability: 0.294
[10]; first compound 0.1265 µM
  relative viability: 0.28
[10]; first compound 0.4 µM
  relative viability: 0.176
[10]; first compound 1.265 µM
  relative viability: 0.105
[10]; first compound 4 µM
  relative viability: 0.107
[11]; first compound 0.04 µM
  relative viability: 0.752
[11]; first compound 0.4 µM
  relative viability: 0.658
[11]; first compound 1.265 µM
  relative viability: 0.407
[11]; first compound 4 µM
  relative viability: 0.43
[12]; first compound 0.04 µM
  relative viability: 0.314
[12]; first compound 0.1265 µM
  relative viability: 0.526
[12]; first compound 0.4 µM
  relative viability: 0.414
[12]; first compound 1.265 µM
  relative viability: 0.274
[12]; first compound 4 µM
  relative viability: 0.288
[13]; first compound 0.04 µM
  relative viability: 0.212
[13]; first compound 0.1265 µM
  relative viability: 0.313
[13]; first compound 0.4 µM
  relative viability: 0.185
[13]; first compound 1.265 µM
  relative viability: 0.214
[13]; first compound 4 µM
  relative viability: 0.192
[14]; first compound 0.04 µM
  relative viability: 0.484
[14]; first compound 0.1265 µM
  relative viability: 0.473
[14]; first compound 0.4 µM
  relative viability: 0.435
[14]; first compound 1.265 µM
  relative viability: 0.37
[14]; first compound 4 µM
  relative viability: 0.349
[15]; first compound 0.04 µM
  relative viability: 0.579
[15]; first compound 0.1265 µM
  relative viability: 0.661
[15]; first compound 0.4 µM
  relative viability: 0.595
[15]; first compound 1.265 µM
  relative viability: 0.304
[15]; first compound 4 µM
  relative viability: 0.337
[16]; first compound 0.04 µM
  relative viability: 0.46
[16]; first compound 0.1265 µM
  relative viability: 0.453
[16]; first compound 0.4 µM
  relative viability: 0.447
[16]; first compound 1.265 µM
  relative viability: 0.162
[16]; first compound 4 µM
  relative viability: 0.183
[17]; first compound 0.04 µM
  relative viability: 0.746
[17]; first compound 0.1265 µM
  relative viability: 0.654
[17]; first compound 0.4 µM
  relative viability: 0.499
[17]; first compound 1.265 µM
  relative viability: 0.283
[17]; first compound 4 µM
  relative viability: 0.273
[18]; first compound 0.04 µM
  relative viability: 0.89
[18]; first compound 0.1265 µM
  relative viability: 0.872
[18]; first compound 0.4 µM
  relative viability: 0.758
[18]; first compound 1.265 µM
  relative viability: 0.494
[18]; first compound 4 µM
  relative viability: 0.226
[19]; first compound 0.04 µM
  relative viability: 0.791
[19]; first compound 0.1265 µM
  relative viability: 0.529
[19]; first compound 0.4 µM
  relative viability: 0.542
[19]; first compound 1.265 µM
  relative viability: 0.334
[19]; first compound 4 µM
  relative viability: 0.372
[20]; first compound 0.04 µM
  relative viability: 0.792
[20]; first compound 0.4 µM
  relative viability: 1.05
[20]; first compound 1.265 µM
  relative viability: 0.318
[20]; first compound 4 µM
  relative viability: 0.384
[21]; first compound 0.04 µM
  relative viability: 0.468
[21]; first compound 0.1265 µM
  relative viability: 0.464
[21]; first compound 0.4 µM
  relative viability: 0.552
[21]; first compound 1.265 µM
  relative viability: 0.381
[21]; first compound 4 µM
  relative viability: 0.338
[22]; first compound 0.04 µM
  relative viability: 0.282
[22]; first compound 0.1265 µM
  relative viability: 0.283
[22]; first compound 0.4 µM
  relative viability: 0.253
[22]; first compound 1.265 µM
  relative viability: 0.174
[22]; first compound 4 µM
  relative viability: 0.214
